Measured values from patent US8987195B2 (priority 2012, dated 2015).
Where two headings read alike, the source gives them in different places.

Columns and labels:
[1] = biological target: HCV NS3/4A protease genotype 1b (Hepatitis C virus genotype 1b, UniProt P26663); assay: HCV NS3/4A protease time-resolved fluorescence (TRF) assay, Ki against genotype 1b; assay type: biochemical; conditions: IC50 [gt-1b] (nM), NS3/4A genotype 1b, enzyme 0.2 nM
In short: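 Enzyme was pre-incubated 30 min with inhibitor in HEPES pH 7.5 buffer (150 mM NaCl, 15% glycerol, 10 mM DTT). Reaction ran 2.5 h at room temperature with 25 nM europium TRF peptide substrate, read at ex 340/em 615 nm. Enzyme levels: 0.2 nM (1b), 0.4 nM (A156T), 0.025 nM (3a). Ki came from four-parameter IC50 via IC50=Ki(1+[S]/KM).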

HCV genotype 1b replicon = assay: HCV replicon assay, genotype 1b replicon EC50; assay type: cell-based, Hepatitis C virus; conditions: Hepatitis C virus, genotype 1b replicon, read-out: EC50 [gt-1b]
In short: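 Replicon cells (Neo^r, some luciferase:Neo^r fusion); G418 removed at plating; compound dilution series, 24-48 h. Readout: RNA by 32P-probe hybridization/protection or TaqMan, normalized to cyclophilin A RNA, or luciferase. EC50 vs DMSO control, 4-parameter fit.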

Structure (SMILES)	IC50 [1] [nM]	EC50 (HCV genotype 1b replicon) [nM]	IC50 ([1]; K+ salt) [nM]	EC50 (HCV genotype 1b replicon; K+ salt) [nM]	EC50 (HCV genotype 1b replicon; GETYPE1B|GT1B, K+ salt) [nM]
Cc1nc2ccc(Cl)cc2c2c1O[C@]1(CC2)C[C@H]2C(=O)N[C@]3(C(=O)NS(=O)(=O)C4(C)CC4)C[C@H]3/C=C\CCCCC[C@H](NC(=O)OC(C)(C)C)C(=O)N2C1 [Example 39, tert-Butyl ((2R,6S,13aS,14aR,16aS,Z)-9′-chloro-5′-methyl-14a-(((1-methylcyclopropyl)sulfonyl)carbamoyl)-5,16-dioxo-1′,2′,3,5,6,7,8,9,10,11,13a,14,14a,15,16,16a-hexadecahydro-1H-spiro[cyclopropa[e]pyrrolo[1,2-a][1,4]diazacyclopentadecine-2,3′-pyrano[2,3-c]quuinolin]-6-yl)carbamate]	0.004	0.59	–	–	–
Cc1nc2ccc(Cl)cc2c2c1O[C@]1(CC2)C[C@H]2C(=O)N[C@]3(C(=O)NS(=O)(=O)C4(C)CC4)C[C@H]3/C=C\CCCCC[C@H](NC(=O)OCC(C)(C)C)C(=O)N2C1 [Example 40, Neopentyl((2R,6S,13aS,14aR,16aS,Z)-9′-chloro-5′-methyl-14a-(((1-methylcyclopropyl)sulfonyl)carbamoyl)-5,16-dioxo-1′,2′,3,5,6,7,8,9,10,11,13a,14,14a,15,16,16a-hexadecahydro-1H-spiro[cyclopropa[e]pyrrolo[1,2-a][1,4]diazacyclopentadecine-2,3′-pyrano[2,3-c]quinolin]-6-yl)carbamate]	–	–	0.005	5.33	–
Cc1nc2ccc(Cl)cc2c2c1O[C@]1(CC2)C[C@H]2C(=O)N[C@]3(C(=O)NS(=O)(=O)C4(C)CC4)C[C@H]3/C=C\CCCCC[C@H](NC(=O)OCC3(C)CC3)C(=O)N2C1 [Example 41]	–	–	0.007	–	16.2
Cc1ccc2nc(C)c3c(c2c1)CC[C@]1(C[C@H]2C(=O)NC4(C(=O)NS(=O)(=O)C5(C)CC5)C[C@H]4/C=C\CCCCC[C@H](NC(=O)OC(C)(C)C)C(=O)N2C1)O3 (stereo partly drawn) [Example 42, tert-Butyl (1aR,3aS,3′R,9S,16aS,Z)-5′,9′-dimethyl-1a-(1-methylcyclopropylsulfonylcarbamoyl)-3,8-dioxo-1a,1′,2,2′,3,3a,4,6,8,9,10,11,12,13,14,16a-hexadecahydro-1H -spiro[cyclopropa[e]pyrrolo[1,2-a][1,4]diazacyclopentadecine-5,3′-pyrano[2,3-c]quinoline]-9-ylcarbamate]	0.008	2.59	–	–	–
Cc1nc2ccc(F)cc2c2c1O[C@]1(CC2)C[C@H]2C(=O)N[C@]3(C(=O)NS(=O)(=O)C4(C)CC4)C[C@H]3/C=C\CCCCC[C@H](NC(=O)OC(C)(C)C)C(=O)N2C1 [Example 43, tert-Butyl (1aR,3aS,3′R,9S,16aS,Z)-9′-fluoro-5′-methyl-1a-(1-methylcyclopropylsulfonylcarbamoyl)-3,8-dioxo-1a,1′,2,2′,3,3a,4,6,8,9,10,11,12,13,14,16a-hexadecahydro-1H-spiro[cyclopropa[e]pyrrolo[1,2-a][1,4]diazacyclopentadecine-5,3′-pyrano[2,3-c]quinoline]-9-ylcarbamate]	0.005	1.25	–	–	–
Cc1nc2c(C(F)(F)F)cccc2c2c1O[C@]1(CC2)C[C@H]2C(=O)N[C@]3(C(=O)NS(=O)(=O)C4(C)CC4)C[C@H]3/C=C\CCCCC[C@H](NC(=O)OC(C)(C)C)C(=O)N2C1 [Example 44, tert-Butyl (1aR,3aS,3′R,9S,16aS,Z)-5′-methyl-1a-(1-methylcyclopropylsulfonylcarbamoyl)-3,8-dioxo-7′-(trifluoromethyl)-1a,1′,2,2′,3,3a,4,6,8,9,10,11,12,13,14,16a-hexadecahydro-1H-spiro[cyclopropa[e]pyrrolo[1,2-a][1,4]diazacyclopentadecine-5,3′-pyrano[2,3-c]quinoline]-9-ylcarbamate]	0.104	1.6	–	–	–
